From US8168656B2, “Indoleacetic acid and indenacetic acid derivatives as therapeutic agents with reduced gastrointestinal toxicity” (Vanderbilt University, priority 2009, dated 2012)

How the values were obtained:
C57/BL6 mice = assay: Toxicity in vivo, daily injections; settings: daily injections of a series of concentrations
cultured cancer cells = assay: Induction of apoptosis of cultured cancer cells; format: cell-based, human
Description: RKO, HCT-116 (another human colorectal cancer cell line), and H1299 (a human non-small cell cancer line) cells that had been treated with test compounds for various times were washed twice with ice-cold PBS and lysed in a lysis buffer (BioVision) on ice for 10 minutes, followed by centrifugation at 15,000×g for 10 minutes. Caspase-3 activity, which is a measure if the initiation of apoptotic cell death, was determined in the supernatant by a colorimeric assay kit (BioVision Inc., Palo Alto, Calif., United States of America) using the p-nitroanilide-labeled peptide, DEVD-pNA, as substrate. Caspase-3 activity was monitored by the release of p-nitroanilide from the substrate at 405 nm. The fold increase in caspase-3 activity is shown in FIG. 9, and was calculated by comparing the absorbance of p-nitroanilide from vehicle treated controls and those treated with sulindac sulfide and its analogs. […]

PPARγ = PPARγ reporter assay in transfected HEK293 cells; format: cell-based; settings: transfected cells in culture
Description: Human embryonic kidney cells (HEK293 cells) were purchased from American Type Culture Collection (ATCC) and maintained in Dulbecco's modified Eagle's medium (DMEM) with GIBCO™ GLUTAMAX™ (Invitrogen Corp., Carlsbad, Calif., United States of America) and 10% heat-inactivated FBS (Atlas Biological, Fort Collins, Colo., United States of America) or 10% charcoal-stripped FBS (HyClone, Logan, Utah, United States of America) in a 5% CO2 constant humidity 37° C. incubator. 9×10^5 HEK293 cells were plated in DMEM supplemented with 10% charcoal-stripped FBS. 18-24 hours after plating, cells were transfected with a control Renilla luciferase expressing plasmid (0.2 μg pCMV-renilla luciferase from Promega Corp., Madison, Wis., United States of America), 0.4 μg PPARγ-GAL4, and 0.4 μg UAS-tk-luc using a lipid ratio of 8 μL Effectene Transfection Reagent (Qiagen Inc., Valencia, Calif., United States of America) per 1 μg DNA in 3 mL of DMEM+10% charcoal-stripped FBS. Cells remained in the transfection mixture overnight until the transfection media was replaced with DMEM+10% charcoal-stripped serum containing ligands of interest or vehicle (0.1% DMSO) […]

Compound	less toxic than indomethacin (C57/BL6 mice)	ability to induce apoptosis of cultured cancer cells, compared with parent drug (cultured cancer cells)	ability to activate PPARγ-mediated transcription in transfected cells, compared with parent drug (PPARγ)
COc1ccc2c(c1)c(CC(=O)O)cn2C(=O)c1ccc(Cl)cc1 [2-Des-methylindomethacin, [1-(4-Chloro-benzoyl)-5-methoxy-1H-indol-3-yl]-acetic acid]	at least 25 fold	as active or more active than the parent drug	as active or more active than the parent drug
CSc1ccc(C=C2C=C(CC(=O)O)c3cc(F)ccc32)cc1 [eindenic acid sulfide, [6-Fluoro-3-(4-methylsulfanyl-benzylidene)-3H-inden-1-yl]-acetic acid]	–	considerably more active than sulindac sulfide	considerably more active than sulindac sulfide
